Data published in US20080038809A1, “ISOLATED LECTIN POLYPEPTIDES CONSISTING OF TRUNCATED […] UDP-GalNAc:POLYPEPTIDE N- ACETYLGALACTOSAMINYLTRANSFERASES” (GLYCOZYM APS, priority 2002, published 2008).
“Also recorded” adds a separate entry of the source.

Columns and labels:
[1] = molecular target: T1, human GalNAc-T2 (UDP-GalNAc:polypeptide N-acetylgalactosaminyltransferase T2) isolated truncated lectin domain (T2ld), HIS-tagged, amino acid residues 408-571 o (Homo sapiens, UniProt Q10471); format: binding
T1 sequence (Q10471 408-571): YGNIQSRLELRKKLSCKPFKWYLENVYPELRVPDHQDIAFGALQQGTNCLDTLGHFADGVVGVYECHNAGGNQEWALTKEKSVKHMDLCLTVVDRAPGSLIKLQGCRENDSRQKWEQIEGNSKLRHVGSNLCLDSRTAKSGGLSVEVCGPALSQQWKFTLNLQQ
Text: (§1) In order to minimize the size and functional complexity of GalNAc-transferase lectins to be used as probes for binding studies, we used multiple sequence alignment analysis to predict and design suitable expression constructs for isolated lectin domains (FIG. 2). In the present invention a direct binding assay was developed using isolated lectin domains of GalNAc-T4 and -T2 with minimal size (FIG. 5). […] The lectin Helix Pomatia (HP) was used as a control plant lectin with known binding specificity for […].
(§2) Direct binding ELISA assay was developed as follows: Polystyrene microtiter plates (Maxisorb, Nunc, Denmark) were coated with peptides or enzymatically glycosylated glycopeptides in PBS overnight at 4° C. Plates were washed and blocked with 0.1% Tween20 and 0.2% BSA in PBS for 1 h at room temperature, followed by incubation with biotinylated proteins in PBS with 0.05% Tween20 for 2 h at room temperature. After four washes with PBS, plates were incubated with 1:2,000 dilution streptavidin-HRP (Sigma) in PBS for 30 min at room temperature and washed four times with PBS. Development was performed with 0.5 mg/ml o-phenylenediamine and 0.02% H2O2 at room temperature for 15 min, and reaction stopped by adding 100 μl/well of 0.5 N H2SO4. Competitive inhibition assays were done at end-point titers of GalNAc-transferase proteins with one hour preincubations with inhibitor.
(§3) In binding studies using lectins without biotinylation antibodies to the HIS-tag and the T7-tag, or in some experiments antibodies raised to GalNAc-T2 and -T4 enzymes were used to detect binding.
(§4) Inhibition experiments were used to further define the binding specificity of GalNAc-T2 and -T4 secreted soluble enzymes as well as lectin domains compared to Helix Pomatia lectin (Table IV).
(§5) The ligand target used in this Example is a GalNAc-MUC1 glycopeptide produced enzymatically from synthetic peptides.

[2] = molecular target: human GalNAc-T4 (UDP-GalNAc:polypeptide N-acetylgalactosaminyltransferase T4) isolated truncated lectin domain (T4ld), HIS-tagged, amino acid residues 405-578 o (Homo sapiens, UniProt Q8N4A0); assay: biochemical; format: binding; details: isolated lectin domain
Sequence of human GalNAc-T4 (UDP-GalNAc:polypeptide N-acetylgalactosaminyltransferase T4) isolated truncated lectin domain (T4ld), HIS-tagged, amino acid residues 405-578 o (Q8N4A0 405-578): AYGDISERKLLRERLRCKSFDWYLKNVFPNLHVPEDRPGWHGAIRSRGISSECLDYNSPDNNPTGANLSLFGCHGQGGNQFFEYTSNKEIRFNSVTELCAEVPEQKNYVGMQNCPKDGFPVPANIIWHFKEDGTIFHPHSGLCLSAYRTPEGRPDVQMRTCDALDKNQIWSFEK
Text: as §1, §2, §3, §4, §5

[3] = tested on: intracellular MUC5AC, HT29MTX cells; assay: Intracellular MUC5AC by immunofluorescence staining of HT29MTX cells; format: cell-based, human; details: 5 mM, CLH2 antibody
Text: FIG. 18 illustrates immuno-fluorescence staining of HT29MTX cells treated with inhibitors as indicated and stained with the anti-MUC5AC monoclonal antibody, CLH2.
In order to evaluate GalNAcβ-benzyl as an inhibitor of mucin glycosylation and secretion we used the cultured colon carcinoma cells of mucin secreting phenotypes: HT-29 metotrexate (MTX) cells selected from the HT-29 cell line by culture in the presence of MTX (kind gift from G. Huet, France). The HT-29 MTX cells were selected to yield a goblet cell like phenotype with constitutive production of MUC5AC. In order to ensure proper goblet cell differentiation the HT29MTX cell line were continuously grown up to 21 days in the presence of 5 mM GalNAcα-benzyl, 5 mM GalNAcβ-benzyl, 5 mM GlcNAcα-benzyl and without inhibitor using culture conditions as described in Hennebicq-Reig et al. (Permanent exposure of mucin-secreting HT-29 cells to benzyl-N-acetyl-alpha-D-galactosaminide induces abnormal O-glycosylation of mucins and inhibits constitutive and stimulated MUC5AC secretion. Biochem J. 1998; 334:283-95). […] Furthermore the viscosity of the media from cells with and without inhibitor was evaluated using viscosity micro-measurement.

SMILES	inhibition of GalNAc-T2 lectin domain binding (in words) [1]	inhibition of GalNAc-T4 lectin domain binding (in words) [2]	intracellular staining of MUC5AC / storage phenotype [3]
CC(=O)N[C@H]1[C@@H](OCc2ccccc2)O[C@H](CO)[C@H](O)[C@@H]1O [GalNAcα-benzyl, benzyl-N-acetyl-alpha-D-galactosaminide]	inhibited binding to the same degree	inhibited binding to the same degree	storage phenotype with increased intracellular staining of MUC5AC
CC(=O)N[C@H]1[C@H](OCc2ccccc2)O[C@H](CO)[C@H](O)[C@@H]1O [GalNAcβ-benzyl]	inhibited binding to the same degree	inhibited binding to the same degree	did not lead to a storage disease phenotype; also recorded: clearly diminished intracellular staining of MUC5AC
